Results taken from patent US20030139371A1, “Drug for combating sexual dysfunctions” (priority 2000, published 2003).

Assays:
[1] = system: isolated rabbit corpus cavernosum; experiment: Isolated rabbit corpus cavernosum in organ chambers, sex not specified or both sexes; conditions: for potentiation of the relaxant effect of purine by the NSAID: NSAID in place of aspirin, combined with purine
From the text: The in vitro model we used was that of the isolated rabbit corpus cavernosum in organ chambers. […] In fact, the best correlations with the results found in humans have been found in the rabbit; see, e.g., Bush P. A., Aronson W. J., Buga G. M., Rajfer J., Ignarro L. J., J. Urol. 147(6); 1650-1655 (1992); Knispel H. H., Goessel C., Bechman R., Urol. Res. 20(4); 253-257 (1992); Holmquist F., Hedlund H., Andersson K. E., J. Physiol. (London) 449; 295-311 (1992); and Cellek S., Moncada S., Proc. Natl. Acad. Sci. USA 94(15); 8226-8231 (1997).
The relaxant action of purines was studied in this model either with purines alone or with an inhibitor of NO synthesis (N-omega-nitro-L-arginine, or L-NNA) so as to investigate whether the regulation by purines of the production of NO is a component of the relaxant effect of purines.
In a similar manner, we investigated whether the presence of an inhibitor of the synthesis of prostaglandins (cyclooxygenase inhibitor) modified the effects of purine. If the action of purine could be explained in part by an indirect effect via prostaglandins, we would expect to see a decrease in the effect of purine in the presence of the cyclooxygenase inhibitor.
This study was performed in vitro on corpus cavernosum smooth muscles from male and female rabbits. The technique is that of organ chambers.
The study was performed on male and female rabbits.

[2] = system: corpus cavernosum smooth muscle from male rabbits; experiment: Relaxation of phenylephrine-precontracted corpus cavernosum smooth muscle in organ chambers, male rabbits; set-up: species or system rabbit; conditions: for relaxation of the corpus cavernosum smooth muscle in the presence of aspirin / relaxation of the corpus cavernosum smooth muscle: male rabbits, after phenylephrine precontraction; for relaxation of the corpus cavernosum smooth muscle in the presence of aspirin: purine 10^-3M combined with aspirin 10^-3M; for relaxation of the corpus cavernosum smooth muscle: purine alone at 10^-3M
[3] = system: corpus cavernosum smooth muscle from female rabbits; experiment: Relaxation of phenylephrine-precontracted corpus cavernosum smooth muscle in organ chambers, female rabbits; set-up: species or system rabbit; conditions: after phenylephrine precontraction; for relaxation of the corpus cavernosum in the presence of aspirin: purine 10^-3M in the presence of aspirin; for relaxation of the corpus cavernosum: purine alone at 10^-3M

In the case of `NC(=NCCC[C@H](N)C(=O)O)N[N+](=O)[O-]` [L-NNA, N-omega-nitro-L-arginine], the “decrease of the relaxant effect of purine in the presence of an inhibitor of NO synthesis” value ([1]; compared with purine alone) was “about 15%”.

`Nc1ncnc2c1ncn2[C@@H]1O[C@H](COP(=O)(O)O)[C@@H](O)[C@H]1O` [AMP] was tested, and the “relaxation of the corpus cavernosum smooth muscle in the presence of aspirin” value [2] was 92%, the “relaxation of the corpus cavernosum smooth muscle” value [2] was 70% and the “relaxation of the corpus cavernosum in the presence of aspirin” value [3] was 36%. For the same compound, the “relaxation of the corpus cavernosum” value [3] was 20%.

In the case of `Cc1cccc(Nc2ccccc2C(=O)O)c1C` [mefenamic acid], the “potentiation of the relaxant effect of purine by the NSAID” value (from here on “potentiation”) [1] was “confirmed”.

For `Nc1ncnc2c1ncn2[C@@H]1O[C@H](COP(=O)(O)OP(=O)(O)OP(=O)(O)O)[C@@H](O)[C@H]1O` [ATP, adenosine triphosphate], the “relaxation of the corpus cavernosum smooth muscle in the presence of aspirin” value [2] was 57%, the “relaxation of the corpus cavernosum smooth muscle” value [2] was 35% and the “relaxation of the corpus cavernosum in the presence of aspirin” value [3] was 50%. For the same compound, the “relaxation of the corpus cavernosum” value [3] was 31%.

In the case of `COc1ccc2c(c1)c(CC(=O)O)c(C)n2C(=O)c1ccc(Cl)cc1` [indomethacin], the “potentiation” value [1] was “confirmed”.

For `CC(=O)Oc1ccccc1C(=O)O` [aspirin, acetylsalicylic acid, reference compound], the “vasoactivity of the NSAID by itself on this model” value ([2]; aspirin alone) was “not vasoactive”.

`O=C(O)c1ccccc1O` [salicylic acid] was tested, and the “potentiation” value [1] was “confirmed”.
